Row | melting point | SMILES
1 | 170 to 173 °C | COc1cc(-c2nc(-c3ccc(N(C)C)cc3)c(C)o2)ccc1O
2 | 256 to 257 °C | CC1(c2ccccc2)C(=O)Nc2cc(Br)cc(Br)c2C1=O (configuration not stated)
3 | 96 to 96.8 °C | CNCCOc1cccc2c1c1cc(C)ccc1n2Cc1ccccc1
4 | 204 to 205 °C | O=C(O)c1cnn(-c2nc(-c3cc(C(F)(F)F)cc(C(F)(F)F)c3)cs2)c1C(F)(F)F
5 | 232 to 233 °C | CS(=O)(=O)c1ccc(Oc2cc(OCc3ccccc3)c3[nH]c(C(=O)O)cc3c2)cc1
6 | 143 to 144 °C | O=C(Nc1ccc(F)cc1)c1ccc(OC(F)(F)F)c(Nc2cccc(C(F)(F)F)c2)c1
7 | 100 to 102 °C | CC(Oc1ccc(F)cc1)c1ccnc2ncnn12 (configuration not stated)
8 | 104 to 107 °C | COc1cc2c(cc1C)C(=O)CCC2
9 | 131 to 132 °C | O=C(O)Cc1cc2c(c(-c3ccccc3)c1)NC(C(F)(F)F)CC2 (configuration not stated)
10 | 328 to 332 °C | CCOc1ccccc1C=C1CCc2c1nc1ccc(C(=O)O)cn1c2=O
11 | 73 to 76 °C | CCCCc1nn(-c2cccc([N+](=O)[O-])c2)c(=O)n1Cc1ccc(-c2ccccc2S(N)(=O)=O)cc1
12 | 161 to 162 °C | Cc1sccc1-c1nc2c3ccsc3ccn2c1N
13 | 105 to 107 °C | CCCCN(CCCC)C(=O)c1c(C)n(CCc2ccccc2)c2ccc(O)c(CN3CCCCC3)c12
14 | 92 to 93 °C | CCOC(=O)Cc1ccc(-c2cn3ccccc3n2)cc1
15 | 94 to 95 °C | CC(C)C[C@H](NC(=O)OCc1ccccc1)C(=O)N[C@@H](Cc1ccccc1)C(=O)COCc1ccco1
16 | 255 to 258 °C | O=C(O)c1cc([N+](=O)[O-])ccc1-c1ccc([N+](=O)[O-])cc1C(=O)O
17 | 94 to 97 °C | CC(=O)c1ccc(OCc2ccccc2)c(CS(C)(=O)=O)c1
18 | 160 to 162 °C | COc1ccccc1-c1ccc(C(=O)O)cc1C
19 | 130 to 132 °C | CCCCCCCCOc1ccc(-c2cnc(-c3ccc(O)c(F)c3F)nc2)cn1
20 | 78 °C | COc1ccc(Cc2cc(S)ccc2OC)cc1
21 | 64 to 72 °C | O=C(c1ccccc1)N1CCSc2cccc(Cl)c2C1

Row | melting point | SMILES
22 | 135 to 136 °C | CCCOc1ccc(S(=O)(=O)N2CCN(CCOC(=O)OCC)CC2)cc1-c1nc2c(CCC)cn(CC)c2c(=O)[nH]1
23 | 150 to 151 °C | CCOC(=O)c1cn(CC)c2nc(N3CCNCC3)c(F)cc2c1=O
24 | 248 to 250 °C | Cn1cnc(COc2nn3c(-c4ccccc4)nnc3cc2-c2ccc(Cl)s2)n1
25 | 130 to 133 °C | CC(C)CCN1N=C(c2ccc(F)cc2)c2cc(F)ccc2CS1(=O)=O
26 | 221 to 224 °C | COC(=O)c1ccc2oc3c(c(=O)c2c1)CCC3=Cc1cc(OC)c(OC)cc1OC
27 | 175 to 176 °C | N#Cc1cc(C(=O)NNC(=O)c2occc2-c2ccccc2Cc2ccccc2)ccc1O
28 | 110 to 112 °C | Cc1c(C)c2c(c(C)c1OCc1ccccc1)C(c1ccc(N(C)C)cc1)C(C)(C)O2 (configuration not stated)
29 | 196 °C | CS(=O)(=O)C(=C1CN(C(c2ccccc2)c2ccccc2)C1)c1ccccc1O
30 | 290 °C | COc1c(C)c(C(=O)c2ccc3nc(C)[nH]c(=O)c3c2)n2ccccc12
31 | 110 to 113 °C | COC(=O)Cc1ccccc1NC(=S)N(C)C
32 | 169 °C | O=Cc1cc2ccc3ccc4ccccc4c3c2o1
33 | 214 °C | O=C1Nc2ccc(Cl)cc2C1(O)c1ccccc1OC(F)(F)F (configuration not stated)
34 | 261 to 262 °C | COc1cc(Nc2c(C#N)cnc3cc(-c4ccc(C=O)cc4)sc23)c(Cl)cc1Cl
35 | 234 °C | O=C(CCCCl)Nc1ccc2c(c1)C(=O)c1cc(NC(=O)CCCCl)ccc1C2=O
36 | 112 to 113 °C | CCCCCCN1c2ccccc2NC(=O)c2cscc21
37 | 191 to 192 °C | Cc1cc(Nc2cnc(C(=O)N(C)CCO)c(Nc3ccc(Cl)cc3)n2)n[nH]1
38 | 82 °C | Cc1cc(C)cc(N(CCCC(N)=O)Cc2ccc3nc(NCCCN4CCOCC4)n(Cc4cccc(Br)n4)c3c2)c1
39 | 183 to 185 °C | O=C(O)c1ccc(C(O)(C(F)(F)F)C(F)(F)F)cc1C(=O)O
40 | 158 to 161 °C | C[C@H](O)C#Cc1cc(CN2CCOCC2)cc2c(=O)c(C(=O)NCc3ccc(Cl)cc3)cn(C)c12
41 | 233 to 239 °C | CCC(=O)N1CCC(NC(=O)Nc2ccc(Br)cc2)CC1
42 | 120 °C | O=C(O)[C@H](Cc1ccc([N+](=O)[O-])cc1)NC1=CC(=O)C12CCCCC2

Row | melting point | SMILES
43 | 120 to 122 °C | CCOc1cccc(-c2ccc(C3=CCN(S(=O)(=O)CC(=O)OC)CC3)cc2)c1
44 | 178 to 186 °C | O=C(Nc1ccccc1C(=O)NCCc1ncc[nH]1)c1ccc(Cl)cc1Cl
45 | 213 to 214 °C | CC(C)(C)c1ccc(CNC(=O)C(Cc2ccccc2)NC(=O)Nc2n[nH]c(=S)s2)cc1 (configuration not stated)
46 | 265 to 266 °C | COc1c(C2CC2c2ccc(NS(C)(=O)=O)cc2)cc(N2CCC(=O)NC2=O)cc1C(C)(C)C (configuration not stated)
47 | 132 °C | O=C(c1ccc(F)cc1)C1CCN(CCCN2c3cccc4cccc(c34)S2(=O)=O)CC1
48 | 142 to 144 °C | CCOC(=O)C1=CC2(CCC1S(=O)(=O)Nc1ccc(F)cc1Cl)OCCCCO2 (configuration not stated)
49 | > 260 °C | CC(=O)Nc1ccc(-c2nc3c(s2)C(=O)c2ccccc2C3=O)o1
50 | 84 to 87 °C | CCSc1cc(C)nc(SCC)c1NC(=O)CCCCCCCCSc1nc2ccccc2o1
51 | 155 to 165 °C | O=C(c1ccc(-n2ccnc2)cc1)N1CCN(S(=O)(=O)c2cc3cc(Cl)ccc3[nH]2)CC1
52 | > 250 °C | C[C@@H](Nc1ncnc2[nH]c(-c3cccc([N+](=O)[O-])c3)cc12)c1ccccc1
53 | 125 to 126 °C | CCNc1nc(Nc2ccccc2)ncc1C=CC(=O)OCC
54 | 132 °C | c1ccc(COc2ccc3c(C45CC6CC(CC(C6)C4)C5)noc3c2)cc1
55 | 282 °C | Cc1n[nH]c2cc(F)c(C3C(C#N)=C(C(F)F)NC(C(F)F)=C3C#N)cc12
56 | 211 °C | N#Cc1ccc(C(=Cc2ccc(C#N)cn2)Cn2cncn2)cc1
57 | 148 °C | CC(=O)c1ccc(S(=O)(=O)N2CCCC2c2ccc(F)cc2)cc1 (racemic)
58 | 101 to 103 °C | CCCc1c(OCC(O)COc2ccc3c(=O)cc(C=CC(=O)O)oc3c2CCC)ccc(C(C)=O)c1O (configuration not stated)
59 | 278 to 280 °C | O=C1CCC(N2Cc3c(OCc4ccc5nc(CN6CCOCC6)cn5c4)cccc3C2=O)C(=O)N1 (configuration not stated)
60 | 136 to 138 °C | O=C(NCCCn1ccnc1)C(c1ccccc1)c1ccccc1
61 | 153 to 155 °C | COC(=O)c1cn(-c2ccccc2Oc2ccc(C)cc2O)nn1
62 | 108 to 110 °C | CN(C)CCNc1ncc(-c2ccccc2)c(C(=O)N(C)Cc2cc(C(F)(F)F)cc(C(F)(F)F)c2)n1

Row | SMILES | melting point
63 | Cc1c(O)cc(O)c(C)c1C(=O)OCC(Cl)(Cl)Cl | 132 to 133 °C
64 | CC1(C)CCC(C)(C)c2cc(-c3cc(I)ccc3-c3ccccc3)ccc21 | 120 to 122 °C
65 | OCC(O)CN1CCN(c2ccc(Cl)nn2)CC1 (configuration not stated) | 126 to 128 °C
66 | Cc1ccc(S(=O)(=O)N2CC2)cc1 | 51 to 52 °C
67 | CCc1c(C(=O)C(C)C)c2ccc(C#N)cc2n1Cc1ccccc1Cl | 132 to 134 °C

Reference: a melting point compilation (Tetko et al.; mined from patent text by program, amines drawn as free bases though some values may be those of a salt)
